This is an account of results in ChEMBL document CHEMBL1159141, “Synthesis and biology of substituted 3-phenyl taxol analogues” (1994).

SMILES strings stand for the structures. Some results are limits rather than exact numbers.

For one experiment, the system named is B16. In words: In vitro concentration which causes 50% inhibition of proliferation of B16 melanoma cells, activity relative to taxol (ED50=1). The format is functional, Mus musculus.
The target of experiment [1] is Tubulin alpha chain (Sus scrofa) (UniProt P02550). In words: In vitro concentration which causes polymerization of 50% of the tubulin, activity relative to taxol (ED50=1). The format is functional.
Another experiment has as its system HCT-116. In words: In vitro concentration which causes 50% inhibition against HCT116 cell line, activity relative to taxol (ED50=1). The format is functional, Homo sapiens.

Chain of Tubulin alpha chain (Sus scrofa) (P02550 whole entry, looked up): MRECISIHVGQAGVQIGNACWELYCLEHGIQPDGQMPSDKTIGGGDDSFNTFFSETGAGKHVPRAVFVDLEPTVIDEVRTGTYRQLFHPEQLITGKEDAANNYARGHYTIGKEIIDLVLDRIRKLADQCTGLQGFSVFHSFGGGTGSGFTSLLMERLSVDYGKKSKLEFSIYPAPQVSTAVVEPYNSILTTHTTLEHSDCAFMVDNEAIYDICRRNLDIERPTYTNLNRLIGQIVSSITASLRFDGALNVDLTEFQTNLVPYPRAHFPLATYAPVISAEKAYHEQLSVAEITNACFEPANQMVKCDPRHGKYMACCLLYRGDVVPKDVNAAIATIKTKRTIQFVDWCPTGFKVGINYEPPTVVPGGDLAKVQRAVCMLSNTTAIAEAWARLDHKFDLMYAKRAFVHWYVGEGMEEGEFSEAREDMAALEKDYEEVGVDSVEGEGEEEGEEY

On to `CC(=O)O[C@H]1C(=O)[C@@]2(C)[C@H]([C@H](OC(=O)c3ccccc3)[C@]3(O)C[C@H](OC(=O)[C@H](O)[C@H](NC(=O)c4ccccc4)c4ccc(Cl)c(Cl)c4)C(C)=C1C3(C)C)[C@]1(OC(C)=O)CO[C@@H]1C[C@@H]2O`, for which the ED50 ratio with B16 stood at 40; in experiment [1], 7.1.

For `CC(=O)O[C@H]1C(=O)[C@@]2(C)[C@H]([C@H](OC(=O)c3ccccc3)[C@]3(O)C[C@H](OC(=O)[C@H](O)[C@H](NC(=O)c4ccccc4)c4ccc(F)cc4)C(C)=C1C3(C)C)[C@]1(OC(C)=O)CO[C@@H]1C[C@@H]2O`, the ED50 ratio was found to be 1.2 in the experiment with B16 and 1.1 in experiment [1].

Take `CC(=O)O[C@H]1C(=O)[C@@]2(C)[C@H]([C@H](OC(=O)c3ccccc3)[C@]3(O)C[C@H](OC(=O)[C@H](O)[C@H](NC(=O)c4ccccc4)c4ccccc4C)C(C)=C1C3(C)C)[C@]1(OC(C)=O)CO[C@@H]1C[C@@H]2O`: the values for the ED50 ratio (in the experiment on B16; in experiment [1]) were above 33 and 5.1, respectively.

As to `CC(=O)O[C@H]1C(=O)[C@@]2(C)[C@H]([C@H](OC(=O)c3ccccc3)[C@]3(O)C[C@H](OC(=O)[C@H](O)[C@H](NC(=O)c4ccccc4)c4cccc(N(C)C)c4)C(C)=C1C3(C)C)[C@]1(OC(C)=O)CO[C@@H]1C[C@@H]2O`, the values for the ED50 ratio (in the experiment with B16; in experiment [1]) were 5.8 and 4.6, respectively.

In the case of `COc1ccc([C@@H](NC(=O)c2ccccc2)[C@@H](O)C(=O)O[C@H]2C[C@@]3(O)[C@@H](OC(=O)c4ccccc4)[C@@H]4[C@]5(OC(C)=O)CO[C@@H]5C[C@H](O)[C@@]4(C)C(=O)[C@H](OC(C)=O)C(=C2C)C3(C)C)cc1`, the ED50 ratio is 1 in the experiment with B16 and 0.5 in experiment [1].

In the case of `CC(=O)O[C@H]1C(=O)[C@@]2(C)[C@H]([C@H](OC(=O)c3ccccc3)[C@]3(O)C[C@H](OC(=O)[C@H](O)[C@H](NC(=O)c4ccccc4)c4cccc(Cl)c4)C(C)=C1C3(C)C)[C@]1(OC(C)=O)CO[C@@H]1C[C@@H]2O`, the ED50 ratio turned out to be 6.7 in the experiment with B16 and 4.4 in experiment [1].

With `CC(=O)O[C@H]1C(=O)[C@@]2(C)[C@H]([C@H](OC(=O)c3ccccc3)[C@]3(O)C[C@H](OC(=O)[C@H](O)[C@H](NC(=O)c4ccccc4)c4ccc(Cl)cc4)C(C)=C1C3(C)C)[C@]1(OC(C)=O)CO[C@@H]1C[C@@H]2O`, the values for the ED50 ratio (in the experiment with B16; in experiment [1]) were 2.2 and 1.9, respectively.

As to `CC(=O)O[C@H]1C(=O)[C@@]2(C)[C@H]([C@H](OC(=O)c3ccccc3)[C@]3(O)C[C@H](OC(=O)[C@H](O)[C@H](NC(=O)c4ccccc4)c4ccc(C)cc4)C(C)=C1C3(C)C)[C@]1(OC(C)=O)CO[C@@H]1C[C@@H]2O`, the results for the ED50 ratio (with B16; in experiment [1]) were 3 and 2.4, respectively.

For the compound `CC(=O)O[C@H]1C(=O)[C@@]2(C)[C@H]([C@H](OC(=O)c3ccccc3)[C@]3(O)C[C@H](OC(=O)[C@H](O)[C@@H](NC(=O)c4ccccc4)c4ccccc4)C(C)=C1C3(C)C)[C@]1(OC(C)=O)CO[C@@H]1C[C@@H]2O` [PACLITAXEL], the ED50 ratio (in the experiment with B16; in experiment [1]) was 1 each time.

For the compound `CC(=O)O[C@H]1C(=O)[C@@]2(C)[C@H]([C@H](OC(=O)c3ccccc3)[C@]3(O)C[C@H](OC(=O)[C@H](O)[C@H](NC(=O)c4ccccc4)c4ccc([N+](=O)[O-])cc4)C(C)=C1C3(C)C)[C@]1(OC(C)=O)CO[C@@H]1C[C@@H]2O`, the results for the ED50 ratio (in the experiment with HCT-116; in experiment [1]) were 35 and 1.1, respectively.
